This experiment has as its system FADU xenografts. Put plainly: Intratumoral NanoLuc mRNA delivery into FADU xenografts, bioluminescence. Format: in vivo, Nu/J mice. Conditions: LNPs containing MC3, cKK-E12, SM-102 or C12-200. The text has this: FIG. 5A illustrates different LNPs formulated to carry NanoLuc reporter mRNA to evaluate effective intratumoral injections into FADU xenografts. To identify the most suitable ionizable lipid for intratumoral delivery, an in vivo imaging system was used to quantify the bioluminescence resulting from the functional delivery of NanoLuc mRNA using LNPs containing four different ionizable lipids: MC3, cKK-E12, SM-102, and C12-200.

The text below walks through data of US20260090997A1, “Lipid Nanoparticles Comprising Nucleic Acids Encoding Therapeutic Genes and Uses in Medical Methods” (priority 2022, published 2026).

As for `CCCCCCCCCCC(O)CN(CCN1CCN(CCN(CC(O)CCCCCCCCCC)CC(O)CCCCCCCCCC)CC1)CCN(CC(O)CCCCCCCCCC)CC(O)CCCCCCCCCC` (stereo not shown) [C12-200], the “bioluminescence from functional delivery of NanoLuc mRNA, comparison of ionizable lipids” value is “optimal ionizable lipid”.
